# Reference: patent publication US10765754B2, “Compositions and methods related to inhibition of respiratory syncytial virus entry” (priority 2015, dated 2020)
# Starred links: 1 amine or outer side, 2 acyl side, 3 side chain; linkers in the order of their positions; H or OH if unused. Positions of bridges follow the written chain, without caps; N, C: chain ends. Non-standard residues stand in square brackets, D forms with d. Residues, ends and D or L forms follow the SMILES beside them. Chains are numbered I, II in the order given. X1 = NCCOCCOCCOCCOCCOCCOCCOCCOCCOCCOCCOCCOCCOCCOCCOCCOCCOCCOCCOCCOCCOCCOCCOCCOCCOCCOCCOCCOCCC(=O)NC(CCC(=O)[*:1])(CCC(=O)[*:2])CCC(=O)[*:3]; PEG6 = NCCOCCOCCOCCOCCOCCOCCC(=O)O
# Experiments:
# [1] = system: RSVA-IZN45 (SEQ ID NO: 34); conditions: Table 8 Result column
# From the text: AC-K-(PEG4)DDG-RSVP32 (SEQ ID NO:142) is an affinity matured RSV N-trimer binder identified from phage display and represents an optimized binding solution from a disulfide constrained CX10C (disulfide constrained 10-mer) library based on the 20 natural amino acids. […] Using the co-crystal structure of RSVP32 (SEQ ID NO:31) and RSVA-IZN21 (SEQ ID NO:34), a molecular-modeling suite (ICM-Pro, MolSoft LLC) was used to model various natural and non-natural amino acid substitutions and calculate binding energies. The following parameters were used to calculate binding energy: electrostatic boundary element energy, H-bonds, solvation energy estimated as surface tension, and side-chain entropy.
# RSV-B/IZN45 = target: T1, RSV-B/IZN45 (Human respiratory syncytial virus B, UniProt O36634); assay: biochemical; type: binding; conditions: RSV-B/IZN45
# T1 construct: N-trimer Mimics Synthesized; made in house; host or cells: chemical peptide synthesis
# From the text: (§1) IZN45 N-trimer mimic comprises the IZ domain, a highly soluble, designed coiled-coil that helps solubilize the N-trimer, along with the C-terminal (bottom) 45 residues of the RSV N-trimer. IZN45 encompasses the full ordered portion of the N-trimer except for three N-terminal residues (removed to maintain a continuous heptad repeat with the IZ domain). The interactions between 35-residue RSV C-peptides, T108 and T118 (Lambert et al., 1996, Proc. Natl. Acad. Sci. USA 93:2186-2191), and IZN45 was examined by surface plasmon resonance (SPR). SPR is a gold standard assay to measure the kinetics and affinity of biological interactions. […] The Biotinylated L-form of RSV target IZN45 was captured onto one lane of a NeutrAvidin coated SPR chip. A mutant version of IZN45 containing four mutated residues along the N-trimer groove designed to disrupt binding (IZN45 Full Mut, negative control) was captured onto a separate lane of the NeutrAvidin chip. T118, corresponding to the C-terminal portion of the RSV F ectodomain, which is known to interact with the RSV N-trimer groove, was flowed over the various surfaces. […] The surfaces were regenerated with a detergent (0.1% SDS) after each injection of analyte. Various concentrations of T118 were measured in duplicate or triplicate injections. D-peptide interactions with IZN45 and IZN45-Full Mut surfaces were also measured using this method.
# (§2) Peptides from the ‘winning’ phage clones from each library were synthesized as D-peptides. If solubility of the peptides was limited, N- or C-terminal charged residue(s) (e.g., lysine) were attached as necessary as previously described for HIV peptides in Eckert et al., 1999, Cell 99:103-15, incorporated by reference in its entirety. Binding affinity and kinetics of the D-peptide inhibitors to the IZN45 and IZN45 mutants was characterized by SPR (Biacore 3000), using methods as described in Welch et al., 2007, Proc. Natl. Acad. Sci. USA 104:16828-33, incorporated by reference in its entirety.
# RSV-A/IZN45 = target: T2, RSV-A/IZN45 (Human respiratory syncytial virus A, UniProt P03420); assay: SPR binding to RSV-A IZN45 N-trimer mimic; conditions: Kd, RSV-A/IZN45
# T2 construct: N-trimer Mimics Synthesized; made in house; host or cells: chemical peptide synthesis
# From the text: as §1, §2
# IZN45 = assay: SPR binding to IZN45 N-trimer mimic, subtype not stated; parameters: species or system RSV
# From the text: as §1, §2
# RSV = conditions: high-risk infants; cited from earlier work
# HIV = conditions: standard viral passaging, escalating inhibitor; cited from earlier work
# IZN45 Full Mut = IZN45 Full Mut (Human respiratory syncytial virus B, UniProt O36634, A170W/A177W/D194W/G184W/N197K); conditions: IZN45 Full Mut / IZN45_Mut, SPR
# From the text: as §1, with “method. […]” for “method.”
# RSV-A F protein = target: T3, RSV-A F protein (Human respiratory syncytial virus A, UniProt P03420); assay: cell-based
# T3 construct: expressed in transfected cells; host or cells: 293 T cells
# Experimental: The RSV Syncytia reduction assay was used to evaluate D-peptide inhibitors of RSV entry (IC50). In brief, 293 T cell were plated in a 96-well plate and a 6-well plate. The cells in the 96-well plate were co-transfected with DNA encoding the RSV F protein (or RSV G protein as a negative control) and DNA encoding firefly luciferase downstream of multiple GAL4 binding sites (CheckMate Mammalian Two-Hybrid system, Promega). These cells were designated the effector cells. The cells in the 6-well plate were transfected with GAL4:Id and VP16:MyoD fusion constructs, which interact and drive gene expression in the presence of GAL4 binding sites. These cells were the target cells. At 24 hours post-transfection, the media is removed from the effector cells and D-peptide inhibitors at 2× concentration (diluted in fresh media) were added. Also at 24 hours post-transfection, the target cells are washed with PBS, gently dissociated from the 6-well plate using Versene (0.48 mM EDTA in PBS), and overlaid (at equal volume) onto the effector cells containing 2× inhibitor. At 48 h post-transfection, the cells are lysed using Glo Lysis Buffer (Promega). Bright Glo luciferase assay substrate is added and luminescent signal from expressed luciferase is measured. Luciferase is only expressed in effector cells that fuse (form syncytia) with target cells.
# [2] = synthesized peptide, KD determined by SPR
# [3] = running text/figure legend, IZN45 subtype not stated
# [4] = subsequent trimer/compound made from peptide, SPR
# [5] = IC50, subsequent trimer/compound made from peptide, syncytia reduction assay using RSV-A F protein
compound,measurement,setting,value
GECVNRPEWLLDWCGT [RSVP32],potency,[1],25 nM
CC(=O)N[C@H](CCCCN)C(=O)NCCOCCOCCOCCOCCOCCOCCC(=O)NCC(=O)N[C@H](C)C(=O)N[C@@H]1CSSC[C@H](C(=O)N[C@H](C)C(=O)N[C@H](C)C(N)=O)NC(=O)[C@@H](Cc2c[nH]c3ccccc23)NC(=O)[C@@H](CC(=O)O)NC(=O)[C@@H](CC(C)C)NC(=O)[C@@H](CC(C)C)NC(=O)[C@@H](Cc2c[nH]c3ccccc23)NC(=O)[C@@H](Cc2c[nH]cn2)NC(=O)[C@H]2CCCN2C(=O)[C@@H](CCC(=O)O)NC(=O)[C@@H](CC(N)=O)NC(=O)[C@@H](CCCNC(=N)N)NC1=O [Ac-K(PEG6)-RSVP20] (Ac-[dK][PEG6]G[dA][dC][dR][dN][dE][dP][dH][dW][dL][dL][dD][dW][dC][dA][dA]-NH2; disulfide 5-16),Kd,RSV-B/IZN45; [2],4100 nM
same,Kd,RSV-A/IZN45; [2],3700 nM
same,Kd,"IZN45; b401, printed without unit",3.7 µM
same,Kd,IZN45; [3],3.7 µM
Ac-GECVNQPEWLLDWCGT-NH2 [SEQ ID NO: 151],Decreased potency compared to RSVP32,[1],~2-fold compared
same,potency,[1],53 nM
"I: Ac-[dK][PEG6]G[dA][dC][dR][dN][dE][dP][dH][dW][dL][dL][dD][dW][dC][dA][dA]-NH2 / II: Ac-[dK][PEG6]G[dA][dC][dR][dN][dE][dP][dH][dW][dL][dL][dD][dW][dC][dA][dA]-NH2 / III: Ac-[dK][PEG6]G[dA][dC][dR][dN][dE][dP][dH][dW][dL][dL][dD][dW][dC][dA][dA]-NH2 (linker I:1-II:1-III:1 via X1; disulfide I:5-I:16, II:5-II:16, III:5-III:16; C-terminus assumed) [Ac-K(PEG6)-RSVP20-trimer]",Kd,RSV-B/IZN45; [4],1.7 nM
same,Kd,RSV-A/IZN45; [4],0.3 nM
same,Kd,IZN45; [3],0.0003 µM
same,improvement in binding affinity of trimer over the corresponding monomer,IZN45; trimerization,"10,000 fold"
Ac-GEVCRPEWLLDWCGT-NH2 [SEQ ID NO: 159],Decreased potency compared to RSVP32,[1],14.4-fold
same,potency,[1],360 nM
Synagis: monoclonal antibody (mAb) given prophylactically throughout RSV season,reduction of hospitalizations,RSV,55%
enfuvirtide,time in which resistance develops,HIV,2-3 weeks
T118: 35-residue RSV C-peptide corresponding to the C-terminal portion of the RSV F ectodomain (FDASISQVNEKINQSLAFIRKSDELLHNVNAGKST),binding to mutant control target,IZN45 Full Mut,did not bind
"I: Ac-[dK][PEG6][dD][dD]G[dS][dM][dC][dV][dN][dR][dP][dE][dW][dL][dL][dD][dW][dC]G[dT]-NH2 / II: Ac-[dK][PEG6][dD][dD]G[dS][dM][dC][dV][dN][dR][dP][dE][dW][dL][dL][dD][dW][dC]G[dT]-NH2 / III: Ac-[dK][PEG6][dD][dD]G[dS][dM][dC][dV][dN][dR][dP][dE][dW][dL][dL][dD][dW][dC]G[dT]-NH2 (linker I:1-II:1-III:1 via X1; disulfide I:8-I:19, II:8-II:19, III:8-III:19) [Ac-K(PEG6)DDG-RSVP24-trimer]",IC50,RSV-A F protein; [5],5.5 µM
Ac-GECVN(HRG)PEWLLDWCGT-NH2 [SEQ ID NO: 147],Decreased potency compared to RSVP32,[1],2.6-fold compared
same,potency,[1],65 nM
"I: Ac-YGFDASISQVNEKINQSLAFIRKSDELLHNVNAGKSTG[PEG6]KGKG-NH2 / II: Ac-YGFDASISQVNEKINQSLAFIRKSDELLHNVNAGKSTG[PEG6] / III: Ac-YGFDASISQVNEKINQSLAFIRKSDELLHNVNAGKSTG[PEG6] (amide I:40-II:C, I:42-III:C) [YG-T118-Tricasso]",IC50,"RSV-A F protein; IC50, (L) inhibitors of RSV, controls for D-peptide studies, assay not stated in Table 6",0.65 µM
"I: Ac-[dS][dM][dC][dV][dN][dR][dP][dE][dW][dL][dL][dD][dW][dC]G[dT]G[dD][dD][PEG6][dK]-NH2 / II: Ac-[dS][dM][dC][dV][dN][dR][dP][dE][dW][dL][dL][dD][dW][dC]G[dT]G[dD][dD][PEG6][dK]-NH2 / III: Ac-[dS][dM][dC][dV][dN][dR][dP][dE][dW][dL][dL][dD][dW][dC]G[dT]G[dD][dD][PEG6][dK]-NH2 (disulfide I:3-I:14, II:3-II:14, III:3-III:14; linker I:21-II:21-III:21 via X1; C-terminus assumed) [Ac-RSVP24-GDD(PEG6)K-trimer]",IC50,RSV-A F protein; [5],4.6 µM
